The results in this text go back to US20250066735A1, “PREPARATION METHOD OF MESENCHYMAL STEM CELL (MSC) AND APPLICATION THEREOF IN KNEE PRODUCT” (GUANGDONG CELL BIOTECHNOLOGY CO. LTD, priority 2024, published 2025).

The test system of the experiment is human bone marrow-derived MSCs. Put plainly: Trypan blue survival rate of MSCs pre-cultivated with additive medium, after H2O2 challenge. Type of experiment: cell-based. The note with it: for Cell survival rate-improving effect (in words): compared among additive compositions, H2O2 challenge; for Cell survival rate: third-generation MSCs cultivated with medium additive, then low-sugar DMEM with 100 mM H2O2 for 1 h, Trypan blue. Here is the method:
(1) Isolation of bone marrow-derived MSCs from a bone marrow: 20 mL to 40 mL of a human bone marrow was extracted and added to a sterile glass bottle with 3,000 U heparin, and the human bone marrow and the heparin were fully mixed for anticoagulation. Normal saline was added at the same amount as the human bone marrow to the sterile glass bottle, and mixing was conducted thoroughly to obtain diluted human bone marrow. The diluted human bone marrow was added slowly to a Ficoll liquid level with 1 part by volume of a lymphocyte separation solution (Ficoll separation solution) per 2 parts by volume of the diluted human bone marrow to obtain a mixed system. The mixed system was centrifuged at 2,000 r/min and 20° C. in a horizontal centrifuge for 25 min, and bone marrow-derived MSCs were collected from an interface, washed with normal saline 2 to 3 times, suspended with an appropriate amount of a culture medium, and counted.
(2) Primary cultivation of the bone marrow-derived MSCs: The bone marrow-derived MSCs obtained in the step (1) were inoculated at a density of 0.3×10^6/mL in a basal medium, and the primary cultivation was conducted. The basal medium is Dulbecco's Modified Eagle Medium (DMEM, GIBCO company, America). During the primary cultivation, the medium was changed every 2 d to remove non-adherent cells and continuously purify the human bone marrow-derived MSCs. When a cell density reached 80%, the sub-cultivation was conducted. For an experimental group, an additive composition of NOG and quercetin was added to the basal medium to prepare an experimental medium.
The sub-cultivation was conducted until third-generation human bone marrow-derived MSCs were obtained. The third-generation human bone marrow-derived MSCs were further cultivated with the experimental medium for cell transplantation.
(3) A survival rate of the human bone marrow-derived MSCs was detected with Trypan blue. The human bone marrow-derived MSCs obtained in the step (2) (cells cultivated without NOG and quercetin were adopted as a control group) were transferred to a low-sugar DMEM including 100 mM hydrogen peroxide (H2O2), cultivated for 1 h, stained with Trypan blue, and observed under a microscope to count a cell survival rate.

On to `O=c1c(O)c(-c2ccc(O)c(O)c2)oc2cc(O)cc(O)c12` [compound 1, quercetin], for which the “Cell survival rate-improving effect (in words)” value was “inferior cell survival rate-improving effect” and the Cell survival rate was 50.2 ± 0.7%.

Regarding `O=C(O)CNC(=O)C(=O)O` [compound 2, N-oxalylglycine], the “Cell survival rate-improving effect (in words)” value is reported as “inferior cell survival rate-improving effect” and the Cell survival rate is listed as 52.3 ± 0.8%.
